{
  "source": "patent US10945989B2",
  "about": "“Perinatal treatment with a flavonoid agonist of the TrkB receptor for BDNF rescues neurogenesis and behavior in the Ts65Dn mouse model of DS” (ALMA MATER STUDIORUM—Universita' di Bologna, priority 2017, dated 2021)",
  "key": {"[1]": {"tested_on": "cultures of NPCs", "assay": "Apoptotic cells in NPC cultures", "format": "cell-based, mouse", "details": "data not shown"}, "[2]": {"tested_on": "Ts65Dn and euploid mice", "assay": "Morris Water Maze, learning phase", "format": "in vivo, mouse", "procedure": "Euploid and Ts65Dn mice received a daily subcutaneous injection (at 9-10 am) of 7,8-DHF (5.0 mg/kg in vehicle) or vehicle from postnatal day 3 (P3) to postnatal day P45-P50. […] These mice will be called here P45 mice. Mice were behaviorally tested in the 6 days that preceded the day of sacrifice (FIG. 2B).\nMice were trained in the MWM task to locate a hidden escape platform in a circular pool, using a previously used protocol (Stagni et al., 2016), that was altogether based on a published protocol (Vorhees and Williams, 2006). The apparatus consisted of a large circular water tank (1.00 m diameter, 50 cm height) with a transparent round escape platform (10 cm^2). The pool was virtually divided into four equal quadrants identified as northeast, northwest, southeast, and southwest. The tank was filled with tap water at a temperature of 22±1.0° C. Mice are more prone to undergo hypothermia than rats and in the MWM hypothermia may cause a reduction in swimming speed (livonen et al., 2003). […] This is consistent with evidence that a temperature of 22° C. is “high enough” to reduce stress and potential hypothermia and “low enough” to maintain the animals' motivation to escape the pool (Costa et al., 2010). The tank was filled with water up to 0.5 cm above the top of the platform and the water was made opaque with milk. The platform was placed in the tank in a fixed position (in the middle of the south-west quadrant). The pool was placed in a large room with various intra (squares, triangles, circles and stars) and extra-maze visual cues. Each mouse was tested in one session of 4 trial on the first day and in two sessions of 4 trials in the following 4 days with an inter-session interval of 45 min. A video camera was placed above the center of the pool and connected to a videotracking system (Ethovision 3.1; Noldus Information Technology B.V., Wageningen, Netherlands). Mice were released facing the wall of the pool from one of the following starting points: North, East, South, or West and allowed to search for up to 60 s for the platform. […] During the inter-trail time (10 s) mice were placed in an empty cage. For the learning phase, we evaluated the latency to find the hidden platform, time in periphery, percentage of time in periphery, path length, proximity to the platform, and swimming speed. Retention was assessed with one trial (probe trial), on the sixth day, 24 h after the last acquisition trial, using the same starting point for all mice. Mice were allowed to search for up to 60 s for the platform. For the probe trial, the latency of the first entrance in the former platform zone, the frequency of entrances in the former quadrant, the proximity to the former platform position (Gallagher's test), the percentage of time spent at the periphery (thigmotaxis), the swimming speed and the percentage of time spent in each quadrant were employed as measures of retention of acquired spatial preference. All experimental sessions were carried out between 9.00 am and […]. The following number of mice were tested. Untreated euploid mice: n=19; untreated Ts65Dn mice: n=14; 7,8-DHF-treated euploid mice: n=17; 7,8-DHF-treated Ts65Dn mice: n=16. Three untreated euploid mice (yielding n=16), one 7,8-DHF-treated euploid mouse (yielding n=16) and one 7,8-DHF-treated Ts65Dn mouse (yielding n=15) were excluded from MWM analysis due to thigmotaxis for a whole recording session."}, "[3]": {"tested_on": "Ts65Dn and euploid mice", "assay": "Morris Water Maze, probe test", "format": "in vivo, mouse"}, "[4]": {"assay": "Mortality before weaning, neonatal treatment", "source_text": "Treatment with either 7,8-DHFor vehicle began on postnatal day 3(P3). All mice that survived in the P0 to P3 period entered this study, with no specific selection criteria. Total of 185 mice entered the study (96 males and 89 females). The number of vehicle-treated and 7,8-DHF treated mice was 96 and 89, respectively.\nThe Ts65Dn strain is characterized by a high mortality rate during gestation (Roper et al., 2006). […] In the current study, treatment with either 7,8-DHF or vehicle began on postnatal day 3 (P3). All mice that survived in the P0 to P3 period entered this study, with no specific selection criteria."}, "[5]": {"details": "Ts65Dn mice, became similar to untreated euploid mice"}},
  "data": [
    {"smiles": "O=c1cc(-c2ccccc2)oc2c(O)c(O)ccc12", "note": "[7,8-DHF, 7,8-dihydroxyflavone]", "values": [
      {"measurement": "number of apoptotic cells", "setting": "[1]", "value": "no effect of treatment"},
      {"measurement": "time spent at the periphery (thigmotaxis)", "setting": "[2]; Ts65Dn mice", "value": "spent a similar time as euploid mice"},
      {"measurement": "escape latency (learning phase)", "setting": "[2]; Ts65Dn mice, 5.0 mg/kg P3-P45-50, save for day 3", "value": "not statistically different from that of untreated euploid mice"},
      {"measurement": "path length", "setting": "[2]; Ts65Dn mice, day 5", "value": "shorter in comparison with their untreated counterparts"},
      {"measurement": "proximity (distance from the platform)", "setting": "[2]; Ts65Dn mice, day 5", "value": "significantly reduced in comparison with their untreated counterparts"},
      {"measurement": "percentage of time spent at the periphery", "setting": "[2]; Ts65Dn mice, significant vs untreated counterparts on day 5", "value": "underwent a reduction"},
      {"measurement": "time spent at the periphery (thigmotaxis)", "setting": "[2]; euploid mice", "value": "reduction in thigmotaxis"},
      {"measurement": "escape latency (learning phase)", "setting": "[2]; euploid mice, vs untreated, significant on day 2 only", "value": "latency was reduced"},
      {"measurement": "percentage of time spent at the periphery (probe test)", "setting": "[3]; Ts65Dn mice", "value": "reduced in comparison with their untreated counterparts"},
      {"measurement": "frequency of entrances in the former quadrant", "setting": "[3]; [5]", "value": "notable increase in the frequency"},
      {"measurement": "latency to enter the former platform zone", "setting": "[3]; [5]", "value": "notable reduction in their latency"},
      {"measurement": "proximity to the former platform position", "setting": "[3]; [5]", "value": "swam closer to the former platform zone"},
      {"measurement": "percentage of time spent in quadrants", "setting": "[3]; Ts65Dn mice, vs SE quadrant only marginally significant", "value": "significantly more time in the former platform quadrant in comparison with the NE quadrant"},
      {"measurement": "frequency of entrances in the former quadrant", "setting": "[3]; euploid mice", "value": "large increase in the frequency of entrances"},
      {"measurement": "percentage of time spent at the periphery (probe test)", "setting": "[3]; euploid mice, treated vs. untreated", "value": "reduction in the percentage of time at the periphery"},
      {"measurement": "percentage of time spent in quadrants", "setting": "[3]; euploid mice, vs NE and SE quadrants", "value": "significantly more time in the former platform quadrant"},
      {"measurement": "adverse effects on the health of mice", "setting": "[4]; mouse, in vivo", "value": "no adverse effects on the health of mice"},
      {"measurement": "mice that died before weaning", "setting": "[4]; treatment from P3, deaths in the P6-P22 period, vehicle 7.3%", "value": 5.6, "unit": "%"}
    ]}
  ]
}
